Entries after “also recorded” stand apart in the source; their conditions may differ. Read-outs that look alike come from different tables or passages of the source. Square brackets hold non-standard residues; d marks the D form. Peptide text beside a SMILES is read from it. Sar = CNCC(=O)O
Tests used:
PepT1 [1] = biological target: T1, PepT1 (Mus musculus, UniProt Q9JIP7); experiment: Co-perfusion of cefadroxil with dimethyl-amiloride; conditions: 0.1 mM DMA co-perfused with 10 μM cefadroxil, pH 6.5, wild-type mice
T1 sequence (Q9JIP7 1-709): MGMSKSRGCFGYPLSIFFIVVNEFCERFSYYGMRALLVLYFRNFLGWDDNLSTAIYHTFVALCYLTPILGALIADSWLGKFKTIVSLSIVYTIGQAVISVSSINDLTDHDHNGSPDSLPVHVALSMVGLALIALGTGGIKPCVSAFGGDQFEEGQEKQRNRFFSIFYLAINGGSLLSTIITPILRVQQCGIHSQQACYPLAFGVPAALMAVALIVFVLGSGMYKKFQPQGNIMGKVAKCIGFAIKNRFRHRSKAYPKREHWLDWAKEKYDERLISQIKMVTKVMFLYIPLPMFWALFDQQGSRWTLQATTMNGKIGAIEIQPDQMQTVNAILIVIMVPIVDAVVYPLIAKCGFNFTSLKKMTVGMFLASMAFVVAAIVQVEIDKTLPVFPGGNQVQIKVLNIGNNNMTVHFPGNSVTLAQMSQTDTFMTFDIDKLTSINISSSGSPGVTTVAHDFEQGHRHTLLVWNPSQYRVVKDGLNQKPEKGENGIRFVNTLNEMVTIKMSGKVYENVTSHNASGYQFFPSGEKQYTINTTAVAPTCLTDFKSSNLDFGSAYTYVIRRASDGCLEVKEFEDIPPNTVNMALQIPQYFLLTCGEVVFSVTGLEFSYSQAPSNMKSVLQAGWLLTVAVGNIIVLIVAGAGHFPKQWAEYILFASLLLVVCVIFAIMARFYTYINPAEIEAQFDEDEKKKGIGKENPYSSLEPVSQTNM

PepT1 [2] = biological target: T1, PepT1; conditions: 25 mM inhibitor co-perfused with 10 μM cefadroxil, pH 6.5, wild-type mice
PepT1 [3] = conditions: cited from earlier work
[4] = after oral dipeptide administration; cited from earlier work
[5] = cited from earlier work
[6] = in situ perfusions in proximal small intestine, cited from earlier work
[7] = mouse, in vivo, po
[8] = cited from earlier work; remark: listed apart in the source
PepT1 [9] = biological target: T1, PepT1; experiment: pH-dependent jejunal permeability of cefadroxil, in situ perfusion; format: in vivo; conditions: 10 μM cefadroxil, jejunum, wild-type mice, pH 5.5 to 7.5
PepT1 [10] = biological target: T1, PepT1; conditions: jejunum, wild-type mice, pH 6.5
PepT1 [11] = biological target: T1, PepT1; format: in vivo, mice; conditions: wild-type mice, 10 μM cefadroxil, pH 6.5
PepT1 [12] = format: in vivo, mice; conditions: for Peff: 10 μM cefadroxil, pH 6.5
Caco-2 cells = conditions: cited from earlier work
PepT1 [13] = conditions: PepT1 cRNA-injected Xenopus oocytes; cited from earlier work

CN(C)c1nc(N)c(C(=O)NC(=N)N)nc1Cl [DMA, 5-(N,N-dimethyl)amiloride]
effect on PepT1-mediated jejunal permeability/uptake of cefadroxil (PepT1 [1]): inhibited
reduction of cefadroxil permeability (PepT1 [1]): about 60%

NCC(=O)O [Gly, glycine]
effect on jejunal effective permeability of cefadroxil (PepT1 [2]): no significant effect

NCC(=O)N1CCC[C@H]1C(=O)O [GlyPro, glycylproline] (H-Gly-Pro-OH)
effect on jejunal effective permeability of cefadroxil (PepT1 [2]): significantly decreased

CN(CC(=O)O)C(=O)CN [GlySar, glycylsarcosine] (H-Gly-[Sar]-OH)
increase of permeability (PepT1 [3]; pH 5.5, in situ perfusion, mice): 36%
effect on jejunal effective permeability of cefadroxil (PepT1 [2]): significantly decreased
reduction (systemic exposure) in PepT1 knockout vs. wild-type mice [4]: ~2 fold

N[C@@H](Cc1c[nH]cn1)C(=O)O [L-His, L-histidine]
effect on jejunal effective permeability of cefadroxil (PepT1 [2]): no significant effect

CNC(=O)c1cccnc1 [NMN, N-methylnicotinamide]
effect on jejunal effective permeability of cefadroxil (PepT1 [2]): no significant effect

CC[N+](CC)(CC)CC [TEA]
effect on jejunal effective permeability of cefadroxil (PepT1 [2]): lack of effect

CC1=C(C(=O)O)N2C(=O)[C@@H](NC(=O)[C@H](N)c3ccc(O)cc3)[C@H]2SC1 [cefadroxil]
binding to plasma proteins [5]: about 20%
Michaelis constant ([6]; ref 12): 5.9 mM
Michaelis constant ([6]; ref 13): 6.6 mM
Tmax increase, PepT1 knockout vs wild-type [7]: ~4 fold
effect on jejunal permeability of GlySar (PepT1 [3]; co-perfusion of cefadroxil at saturating concentrations, wild-type mice): significantly reduced
half-life [8]: ~ 95 min
effect of perfusate pH on effective permeability (PepT1 [9]): no significant differences; also recorded: not significantly affected
K′m (apparent) (PepT1 [10]; based on bulk fluid (inlet) concentrations): 3.8 ± 1.2 mM
Vmax (intrinsic) (PepT1 [10]; referenced to membrane surface concentration Cw): 4.5 ± 0.3 nmol/cm^2/sec
Peff (PepT1 [11]; duodenum): 49 ×10⁻⁶ cm/s
Peff (PepT1 [11]; ileum): 88 ×10⁻⁶ cm/s
Peff (PepT1 [11]; jejunum): 80 ×10⁻⁶ cm/s
Peff (PepT1 [12]; PepT1 knockout mice, colon): 3.2 ×10⁻⁶ cm/s
Peff (PepT1 [12]; PepT1 knockout mice, ileum): 4.2 ×10⁻⁶ cm/s
Peff (PepT1 [12]; PepT1 knockout mice, jejunum): 9 ×10⁻⁶ cm/s
difference between genotypes in the permeability in colon (PepT1 [12]; colon, wild-type vs PepT1 knockout): no significant difference
permeability in PepT1 knockout mice as compared to wild-type mice (PepT1 [12]; duodenum): 4%
permeability in PepT1 knockout mice as compared to wild-type mice (PepT1 [12]; ileum): 5%
permeability in PepT1 knockout mice as compared to wild-type mice (PepT1 [12]; jejunum): 12%
Peff (PepT1 [12]; wild-type mice, colon): 6.4 ×10⁻⁶ cm/s
decrease of uptake (Caco-2 cells; further reducing the pH to 5.5): 50%
increase of drug uptake (Caco-2 cells; shifting the pH from 7.4 to 6.0): about 4 fold
Michaelis constant (PepT1 [13]): 1.1 mM

CC(=O)OCC1=C(C(=O)O)N2C(=O)[C@@H](NC(=O)Cc3cccs3)[C@H]2SC1 [cephalothin]
effect on jejunal effective permeability of cefadroxil (PepT1 [2]): not affected; also recorded: no significant effect; also recorded: lack of effect

— publication PMC3596500 (Pharmaceutical research, 2012)
